Results as given in patent publication US10689526B2, “N-halamines compounds as multifunctional additives” (BOARD OF REGENTS, THE UNIVERSITY OF TEXAS SYSTEM, priority 2005, dated 2020).

Assays:
[1] = DSC and TGA thermal analysis of Cl-BTMP; assay type: physicochemical
[2] = system: Staphylococcus aureus subsp. aureus (S. aureus, ATCC 6538, gram-positive); assay: Antimicrobial activity of CADMH in aqueous suspension; assay type: cell-based; conditions: for contact time for a total kill of 10^8-10^9 CFU/mL of S. aureus: 500 ppm of active chlorine content
Experimental: (§1) In other examples to evaluate antimicrobial activities of CADMH, Escherichia coli (e.g., E. coli, ATCC® 15597™, gram-negative) and Staphylococcus aureus subsp. aureus (e.g., S. aureus, ATCC® 6538™, gram-positive) were used as model microorganisms to challenge the antimicrobial functions of the samples. In the microbial studies, the bacteria were grown in broth solutions (e.g., LB broth for E. coli; Tryptic Soy broth for S. aureus) overnight at 37° C. Cells were harvested in a centrifuge, washed twice with phosphate buffered saline (e.g., PBS, OmniPur®, NaCl, 8.0 g/L; KCl, 0.20 g/L; Na2HPO4, 1.42 g/L; KH2PO4, 1.36 g/L; pH 7.4), re-suspended in PBS, and then diluted to concentrations of 10^8-9 CFU/mL. A known amount of CADMH (particle size: 60-80 mesh) was dispersed in 10 mL of sterilized distilled water. The mixture was vortexed and then sonicated for 10 minutes. Then, 100 μL of the bacteria suspension were added into the CADMH-containing suspension and the resultant mixture was vortexed for 60 seconds. After a certain period of contact time under constant shaking, the mixture was poured into 90 mL of 0.03 wt % sterilized sodium thiosulfate aqueous solution to quench the active chlorine and stop the antimicrobial test. […] The resulting solutions were vortexed for 2 minutes and then serially diluted, and each dilution was placed onto LB agar (for E. coli) or Tryptic soy agar (for S. aureus). The same procedure was also applied to the correspondent unchlorinated samples as controls. Bacterial colonies on the plates were counted after incubation at 37° C. for 24 hours.

[3] = system: Escherichia coli (E. coli, ATCC 15597, gram-negative); assay: as above; assay type: cell-based; conditions: for contact time for a total kill of 10^8-10^9 CFU/mL of E. coli: 500 ppm of active chlorine content; for % of kill of E. coli / log reduction of E. coli: 1000 ppm of active chlorine content
Experimental: as §1

[4] = Thermal properties by DSC; assay type: physicochemical
Experimental: Thermal properties of the samples were examined with DSC, and the representative DSC curves are shown in FIG. 6 using DCSDMH and Cl-DCSDMH as examples. […] After chlorination, the N—H bond in DCSDMH is transformed into N—Cl group, and because of the lack of hydrogen bonding, the melting point of Cl-DCSDMH decreases to 52.4° C.

E. coli = assay: Antimicrobial activity of CADMH-containing PS or HDPE films (sandwich test); assay type: cell-based
Experimental: Preparation of CADMH-containing polymeric materials. PS and HDPE were used as the model polymers to preliminarily evaluate the antimicrobial activities of CADMH as additives. In the preparation of CADMH-containing PS films, a certain amount of CADMH was dissolved in 5% PS solutions in THF. The solution was poured onto glass slides. The glass slides were put in a fume hood for 2 days at room temperature to evaporate most of the solvent, and then further dried in a vacuum oven at 30° C. for 3 days to obtain polymer films (100±10 μm of thickness). To prepare CADMH-containing HDPE films, a predetermined amount of CADMH was added into 5% HDPE solutions in hot o-xylene under constant stirring. After evaporation of the solvent, polymer films having a thickness of about 70±5 μm were obtained by hot pressing at 140° C. for 15 seconds. The chlorine contents of the CADMH-containing PS and HDPE films were determined by iodimetric titration, as described above. Pure PS or HDPE films without the presence of CADMH were prepared using the same procedures as controls.
Antimicrobial activity of CADMH-containing polymers. In the antimicrobial tests of CADMH-containing PS or HDPE films, 10 μL of E. coli suspensions (e.g., 10^8-10^9 CFU/mL) were placed onto the surface of a film (e.g., 4×4 cm). The film was then covered with another identical film. A 100 grams weight was added onto the whole “sandwich” to ensure sufficient contact. At different contact time, the “sandwich” was transferred into 10 mL of 0.03 wt % sodium thiosulfate aqueous solution to quench the active chlorine of the samples. The mixture was sonicated for 20 minutes and vortexed for 60 seconds to remove the adherent bacteria into the solution. The resultant solution was serially diluted, and each dilution was placed onto LB agar plates. The same procedure was also applied to the pure PS or HDPE films as controls. Bacterial colonies were counted after 24 hours of incubation at 37° C.

Solubility in water = assay type: physicochemical
[5] = Storage stability, active chlorine content by iodimetric titration; assay type: physicochemical; conditions: PS and HDPE films, storage for 4 months at 23±2° C. and 70±5% RH
Experimental: After storage for about 4 months under ambient conditions (e.g., 23±2° C., 70±5% RH), all the samples retained more than 96% of their original chlorine contents. The antimicrobial functions were tested monthly during the storage period, and after 4 months of storage, the minimum contact time of the samples for a total kill of 10^8-10^9 CFU/mL of E. coli or S. aureus was unchanged.

S. epidermidis = assay: Anti-biofilm functions of N-halamine-containing samples (recovered bacteria, SEM); assay type: cell-based; conditions: polyurethane samples containing 4% additive, three days of immersion in S. epidermidis
Experimental: Preparation of N-halamine-containing materials. In one example, a predetermined amount of Cl-ODDMH (e.g., 1%, 2% and 4% to PU) was added into 5% polyurethane (Noveon) solutions in THF under constant stirring to from a clear solution. The solution was cast onto Teflon sheets in a fume hood at room temperature for 2 days to produce thin films (e.g., 170±10 μm of thickness). The films were further dried under vacuum at 50° C. for 3 days. Cl-ODDMH-containing PU sheets (e.g., 4×4 cm) or discs (e.g., 0.5 cm of diameter) were cut sterilely from the films. Pure PU sheets or discs were prepared under the same conditions as controls.
Anti-biofilm functions. The samples were immersed individually in sealed tubes containing 5 mL of S. epidermidis broth suspension (10^6-10^7 CFU/mL of bacteria) in a shaking water bath at 37° C. and 30 RPM. […] The solution was serially diluted, and 100 μL of each dilution was plated onto agar plates. The same procedure was applied to the untreated samples as controls. Bacterial colonies were counted after incubation at 37° C. for between about 24 and 48 hours. SEM studies were used to confirm the biofilm controlling function. PU discs with or without the presence of Cl-ODDMH were immersed in 5 mL 10^6-10^7 CFU/mL of S. epidermidis broth suspensions in a water bath at 37° C. and 30 RPM. […]

[6] = 1000 ppm active chlorine content
[7] = 1000 ppm of active chlorine content, 5 minutes of contact

For `CC1(C)CC(OC(=O)CCCCCCCCC(=O)OC2CC(C)(C)N(Cl)C(C)(C)C2)CC(C)(C)N1Cl` [Cl-BTMP, bis(N-chloro-2,2,6,6-tetramethyl-4-piperidinyl) sebacate], the “thermally stable up to” value [1] was “up to 200 °C”.
With `CCCCCCCCCCCCCCCCCCCCCCN1C(=O)N(Cl)C(C)(C)C1=O` [Cl-DCSDMH] the “contact time for a total kill of 10^8-10^9 CFU/mL of S. aureus” value [2] was 60 minutes, the “contact time for a total kill of 10^8-10^9 CFU/mL of E. coli” value (“contact time for a total kill … of E. coli” below) [3] was 60 minutes and the “exothermic peak in the DSC curve (decomposition of the N—Cl bond)” value [4] was 176.0 °C. For the same compound, the “contact time for a total kill … of E. coli” value (E. coli; 1% additive in HDPE films) was 4 hours, the “contact time for a total kill … of E. coli” value (E. coli; 1% additive in PS films) was 4 hours and the “antimicrobial activities of the films after storage” value (E. coli; PS and HDPE films, storage for 4 months at 23±2° C. and 70±5% RH) was “no changes”. For the same compound, the “solubility in water (in words)” value (Solubility in water) was “insoluble” and the “active chlorine contents of the films after storage” value [5] was “no changes”.
For `CCN1C(=O)N(Cl)C(C)(C)C1=O` [Cl-EDMH], the “contact time for a total kill of 10^8-10^9 CFU/mL of S. aureus” value [2] was “less than 5 minutes”, the “contact time for total kill of S. aureus” value [2, 6] was “less than 5 minutes” and the “contact time for a total kill … of E. coli” value [3] was “less than 5 minutes”. For the same compound, the “contact time for total kill of E. coli” value [3, 6] was “less than 5 minutes” and the solubility in water (Solubility in water; 23° C.) was “ca. 3 g/L”.
In the case of `CCCCCCN1C(=O)N(Cl)C(C)(C)C1=O` [Cl-HDMH], the “contact time for a total kill of 10^8-10^9 CFU/mL of S. aureus” value [2] is reported as 30 minutes, the “% of kill of S. aureus” value [2, 7] is reported as 100% and the “log reduction of S. aureus” value [2, 7] is reported as 7 log. The “log reduction of S. aureus” value ([2]; 1000 ppm of active chlorine content, contact time 15 minutes) was 8 log, the “contact time for a total kill … of E. coli” value [3] was 30 minutes and the “% of kill of E. coli” value ([3]; 5 minutes of contact) was 99%. For the same compound, the “log reduction of E. coli” value ([3]; 5 minutes of contact) was 2 log, the “% of kill of E. coli” value ([3]; contact time 15 minutes) was 99.999% and the “log reduction of E. coli” value ([3]; contact time 15 minutes) was 5 log. The “solubility in water (in words)” value (Solubility in water) was “insoluble”.
With `CCCCCCCCCCCCCCCCCCN1C(=O)N(Cl)C(C)(C)C1=O` [Cl-ODDMH] the “bacteria recovered from the samples” value (S. epidermidis) was “less than 50 CFU/cm^2”.
